This passage reports IC50 results from patent US11524966B1 (Valo Early Discovery, Inc., priority 2017, dated 2022).

The structures appear in SMILES notation.

The target of one assay is T1, USP25 (USP25-His6, Boston Biochem E-546) (Homo sapiens, UniProt Q9UHP3).
T1 construct: His6; purchased Boston Biochem E-546
T1 sequence (Q9UHP3 1-1055): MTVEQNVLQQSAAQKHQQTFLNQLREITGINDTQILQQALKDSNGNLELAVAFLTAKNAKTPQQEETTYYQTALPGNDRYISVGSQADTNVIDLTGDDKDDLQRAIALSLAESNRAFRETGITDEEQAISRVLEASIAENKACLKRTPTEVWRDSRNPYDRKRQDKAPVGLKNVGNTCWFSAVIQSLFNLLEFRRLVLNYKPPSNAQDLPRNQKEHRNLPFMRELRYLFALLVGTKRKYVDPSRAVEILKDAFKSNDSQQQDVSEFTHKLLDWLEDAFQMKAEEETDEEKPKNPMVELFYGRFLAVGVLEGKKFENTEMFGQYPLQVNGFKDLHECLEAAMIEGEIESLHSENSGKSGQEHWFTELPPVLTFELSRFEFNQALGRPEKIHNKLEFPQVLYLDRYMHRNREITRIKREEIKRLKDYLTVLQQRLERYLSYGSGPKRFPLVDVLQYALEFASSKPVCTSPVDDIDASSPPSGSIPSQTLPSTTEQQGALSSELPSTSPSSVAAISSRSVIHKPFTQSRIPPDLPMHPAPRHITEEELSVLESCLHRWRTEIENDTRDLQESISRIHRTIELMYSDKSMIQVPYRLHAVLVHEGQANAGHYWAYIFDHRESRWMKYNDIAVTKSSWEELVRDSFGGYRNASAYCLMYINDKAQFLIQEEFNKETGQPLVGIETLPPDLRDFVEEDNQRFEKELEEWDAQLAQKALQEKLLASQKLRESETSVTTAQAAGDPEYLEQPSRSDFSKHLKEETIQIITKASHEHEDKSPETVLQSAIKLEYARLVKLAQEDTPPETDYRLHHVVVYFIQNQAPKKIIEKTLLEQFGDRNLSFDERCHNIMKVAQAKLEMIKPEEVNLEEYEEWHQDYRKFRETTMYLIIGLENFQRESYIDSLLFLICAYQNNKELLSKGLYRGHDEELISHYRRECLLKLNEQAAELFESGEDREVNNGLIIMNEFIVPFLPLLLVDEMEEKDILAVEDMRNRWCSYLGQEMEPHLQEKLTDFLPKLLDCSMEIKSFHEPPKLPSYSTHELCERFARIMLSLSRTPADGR
The assay can be described thus: Ubiquitin-Rhodamine 110 Assay for USP25 Activity, Example A-2. The conditions noted are these: Ub-Rh110 assay, Example A-2; read-out: USP25 A-2 IC50 range. In kind it is biochemical. Put shortly: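 Fluorescence (ex 485, em 535 nm) of cleaved ubiquitin-rhodamine 110 (25 nM, below Km) gave IC50 via 4-parameter logistic fit. Reaction: 45 min, room temperature, citric acid stop, after 30 min compound preincubation with 75 pM USP25-His6 in 20 mM Tris pH 8.0, 3 mM BME, 0.03% BGG, 0.01% Triton X-100; top dose 25 μM.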
Regarding `Cc1ccc2c(N)c(C(=O)N[C@H]3COc4cc(N5CCN[C@@H](C)[C@H]5C)ccc4C3)sc2n1` (single isomer, unassigned) [Example 1-7], the IC50 (commonly the concentration that gives 50% inhibition) lay in the range of 1 to 50 nM.

Still in this assay, the particulars now being: Ubiquitin-Rhodamine 110 assay, format Example A-2; read-out: USP25 A-2 IC50 range.
With `Cc1cnc2c(N)c(C(=O)N[C@H]3CCc4cc(N5CC6CCC(C5)N6)c(C#N)cc4C3)sc2n1` (single isomer, unassigned) [Example 14-8], the IC50 fell in the range of 50 to 200 nM.
In the case of `Cc1cnc2c(N)c(C(=O)N[C@@H]3CCc4c(ccc(N5CC6CCC(C5)N6)c4C#N)C3)sc2n1` (single isomer, unassigned) [Example 14-5], the IC50 is 50 to 200 nM.
Regarding `Cc1ccc2c(N)c(C(=O)N[C@H]3CCc4cc(N5CC6CCC(C5)N6)c(C#N)cc4C3)sc2n1` (single isomer, unassigned) [Example 14-4], the IC50 lay in the range of 50 to 200 nM.
On the same count and under the same terms, then `Cc1ccc2c(N)c(C(=O)N[C@H]3CCc4c(ccc(N5CC6CCC(C5)N6)c4C#N)C3)sc2n1` (single isomer, unassigned) [Example 14-2], with above 2000 nM; and `Cc1ccc2c(N)c(C(=O)N[C@@H]3CCc4cc(N5CC6CCC(C5)N6)c(C#N)cc4C3)sc2n1` (single isomer, unassigned) [Example 14-3], with above 2000 nM.
As to `Cc1cnc2c(N)c(C(=O)N[C@@H]3CCc4cc(N5CC6CCC(C5)N6)c(C#N)cc4C3)sc2n1` (single isomer, unassigned) [Example 14-7], the IC50 is above 2000 nM.
On the same count and under the same terms, then `Cc1ccc2c(N)c(C(=O)N[C@@H]3CCc4c(ccc(N5CC6CCC(C5)N6)c4C#N)C3)sc2n1` (single isomer, unassigned) [Example 14-1], with 50 to 200 nM.
Same read-out and setting: then `Cc1nc2sc(C(=O)N[C@@H]3CCc4cc(N5CC6CCC(C5)N6)ccc4C3)c(N)c2s1` (single isomer, unassigned) [Example 12-2], with 200 to 2000 nM.
Turning to `Cc1nc2sc(C(=O)N[C@H]3CCc4cc(N5CCNCC5)ccc4C3)c(N)c2s1` (single isomer, unassigned) [Example 11-33], the IC50 was above 2000 nM.
The same measure, in the same setting: with `Cc1cnc2c(N)c(C(=O)N[C@H]3CCc4c(ccc(N5CC6CCC(C5)N6)c4C#N)C3)sc2n1` (single isomer, unassigned) [Example 14-6] the figure was above 2000 nM.
